Results on 33 compounds are retold here after ChEMBL document CHEMBL3621138, “Aminothiazoles: Hit to lead development to identify antileishmanial agents” (Eur J Med Chem, 2015).

Data set [1] in a line: Metabolic stability in golden Syrian hamster liver microsomes assessed as drug metabolism at 0.5 uM incubated for 30 mins in presence of NADPH. It is filed as ADME, Mesocricetus auratus. The conditions noted are these: read-out: Drug metabolism.
A short description of data set [2]: Metabolic stability in CD1 mouse liver microsomes assessed as drug metabolism at 0.5 uM incubated for 30 mins in presence of NADPH. It is filed as ADME. The conditions noted are these: read-out: Drug metabolism.
Data set [3] in a line: Tmax in Swiss Albino mouse at 25 mg/kg, po by LC-MS/MS method. It counts as ADME, organism-based. The conditions noted are these: in vivo.
Data set [4] is described as follows: Cmax in Swiss Albino mouse at 1 mg/kg, iv by LC-MS/MS method. It is filed as ADME, organism-based. On the set-up: dose 1 mg/kg, route intravenous. The conditions noted are these: in vivo.
A short description of data set [5]: Cmax in Swiss Albino mouse at 25 mg/kg, po by LC-MS/MS method. It counts as ADME, organism-based. On the set-up: dose 25 mg/kg, route oral. The conditions noted are these: in vivo.
The nature of data set [6]: AUClast in Swiss Albino mouse at 1 mg/kg, iv by LC-MS/MS method. It counts as ADME, organism-based. The arrangement: dose 1 mg/kg, route intravenous, time 0 - last. The conditions noted are these: in vivo.
Data set [7] in a line: AUClast in Swiss Albino mouse at 25 mg/kg, po by LC-MS/MS method. It is filed as ADME, organism-based. On the set-up: dose 25 mg/kg, route oral, time 0 - last. The conditions noted are these: in vivo.
Data set [8] in a line: AUC (infinity) in Swiss Albino mouse at 25 mg/kg, po by LC-MS/MS method. It counts as ADME, organism-based. The arrangement: dose 25 mg/kg, time infinity, route oral. The conditions noted are these: in vivo.
Data set [9] can be described thus: AUC (infinity) in Swiss Albino mouse at 1 mg/kg, iv by LC-MS/MS method. It counts as ADME, organism-based. On the set-up: dose 1 mg/kg, time infinity, route intravenous. The conditions noted are these: in vivo.
A short description of data set [10]: Terminal half-life in Swiss Albino mouse at 1 mg/kg, iv by LC-MS/MS method. It counts as ADME, organism-based. The conditions noted are these: in vivo, read-out: beta t1/2 (converted).
Data set [11] can be described thus: Clearance in Swiss Albino mouse at 1 mg/kg, iv by LC-MS/MS method. It is filed as ADME, organism-based. The conditions noted are these: in vivo, read-out: CLH.
A short description of data set [12]: Volume of distribution at steady state in Swiss Albino mouse at 1 mg/kg, iv by LC-MS/MS method. It counts as ADME, organism-based. The conditions noted are these: in vivo, read-out: Vdss.
A short description of data set [13]: Oral bioavailability in Swiss Albino mouse at 1 mg/kg by LC-MS/MS method. It counts as ADME, organism-based. The conditions noted are these: in vivo.
The nature of data set [14]: Cmax in Swiss Albino mouse at 50 mg/kg, po by LC-MS/MS method. On the set-up: dose 50 mg/kg, route oral. The conditions noted are these: in vivo. It counts as ADME, organism-based.
Data set [15] is described as follows: Tmax in Swiss Albino mouse at 50 mg/kg, po by LC-MS/MS method. It counts as ADME, organism-based. The conditions noted are these: in vivo.
A short description of data set [16]: AUClast in Swiss Albino mouse at 50 mg/kg, po by LC-MS/MS method. It counts as ADME, organism-based. The arrangement: dose 50 mg/kg, time 0 - last, route oral. The conditions noted are these: in vivo.

Each structure is given as a SMILES string.

On to `Cc1cccc(Nc2nc(-c3ccccn3)cs2)n1`, for which the metabolised at 0.5 h, 0.5 µM in data set [1] and in data set [2] was 100% each time.

As to `COc1cccc(-c2csc(Nc3ccc(Cl)cn3)n2)n1`, the figures for the metabolised at 0.5 h, 0.5 µM in data set [1] and in [2] were 100% and 75%, respectively.

With `Cc1ccc(Nc2nc(-c3ccccn3)cs2)cc1C`, the metabolised at 0.5 h, 0.5 µM in data set [1] and in [2] was 100% in each case.

In the case of `COc1ccc(Nc2nc(-c3ccccn3)cs2)cc1`, the metabolised at 0.5 h, 0.5 µM in data set [1] and in [2] was 100% throughout.

Regarding `COc1ccc(Nc2nc(-c3cccnc3)cs2)cc1`, the metabolised at 0.5 h, 0.5 µM in data set [1] and in [2] was 96% each time.

On to `COc1ccc(Nc2nc(-c3ncccn3)cs2)cc1`, for which the metabolised at 0.5 h, 0.5 µM is 81% in data set [1] and 99% in data set [2].

`CN(C)c1ccc(Nc2nc(-c3ccccn3)cs2)cc1`: the figures for the metabolised at 0.5 h, 0.5 µM in [1] and in data set [2] were 99% and 98%, respectively.

On to `c1ccc(-c2csc(Nc3ccc4c(c3)OCCO4)n2)nc1`, for which the values for the metabolised at 0.5 h, 0.5 µM in data set [1] and in data set [2] were 100% and 99%, respectively.

For `COc1ccc(Nc2nc(-c3ccccn3)cs2)cc1OC`, the metabolised at 0.5 h, 0.5 µM in [1] and in data set [2] was 100% in each case.

For the compound `COc1ccc(Nc2nc(-c3ccccn3)cs2)nc1`, the metabolised at 0.5 h, 0.5 µM is 99% in [1] and 100% in [2].

For `COc1ccnc(-c2csc(Nc3ccc(Cl)cn3)n2)c1`, the values for the metabolised at 0.5 h, 0.5 µM in data set [1] and in data set [2] were 100% and 97%, respectively.

Turning to `COc1ccc(-c2csc(Nc3ccc(Cl)cn3)n2)nc1`, the metabolised at 0.5 h, 0.5 µM was 100% in data set [1] and 97% in [2].

As to `FC(F)(F)c1ccc(-c2csc(Nc3ccc(Cl)cn3)n2)nc1`, the metabolised at 0.5 h, 0.5 µM in [1] turned out to be 98%; in [2], 63%.

In the case of `CCOc1ccc(-c2csc(Nc3ccc(Cl)cn3)n2)nc1`, the metabolised at 0.5 h, 0.5 µM in [1] came out at 10%; in data set [2] it was 62%. Also, the Tmax in [3] amounted to 15 min. For the same compound, the Cmax in data set [4] worked out at 885 ng/mL; in data set [5], 167 ng/mL. In addition, the figures for the AUC(0-t) in data set [6] and in data set [7] were 178 ng·h/mL and 362 ng·h/mL, respectively. Moreover, the AUC(0-inf) in [8] turned out to be 377 ng·h/mL; in [9] it was 183 ng·h/mL. Also, in [10], the half-life was 28.8 min. Also, the clearance in data set [11] is 91 mL/min/kg. Besides, the Vd in data set [12] was 1.99 L/kg. The compound also gave a bioavailability in data set [13] of 8%.

Take `Clc1ccc(Nc2nc(-c3ccccn3)c(Cl)s2)nc1`: the metabolised at 0.5 h, 0.5 µM in data set [1] was determined as 100%; in [2], 93%.

Turning to `COc1ccnc(-c2nc(Nc3ccc(Cl)cn3)sc2Cl)c1`, the metabolised at 0.5 h, 0.5 µM in data set [1] turned out to be 100%; in data set [2], 90%.

Regarding `COc1ccc(-c2nc(Nc3ccc(Cl)cn3)sc2Cl)nc1`, the metabolised at 0.5 h, 0.5 µM in data set [1] is 100%; in [2] it was 92%.

On to `FC(F)(F)c1ccc(-c2nc(Nc3ccc(Cl)cn3)sc2Cl)nc1`, for which the metabolised at 0.5 h, 0.5 µM in data set [1] is 63%; in data set [2], 30%.

Regarding `CCOc1ccc(-c2nc(Nc3ccc(Cl)cn3)sc2Cl)nc1`, the metabolised at 0.5 h, 0.5 µM in data set [1] stood at 87%; in data set [2], 56%.

On to `Clc1ccc(Nc2nc(-c3cccnn3)cs2)nc1`, for which the metabolised at 0.5 h, 0.5 µM in data set [1] is 99%; in data set [2] it was 95%.

For the compound `Clc1ccc(Nc2nc(-c3cccnn3)c(Cl)s2)nc1`, the results for the metabolised at 0.5 h, 0.5 µM in data set [1] and in [2] were 99% and 70%, respectively.

As for `Clc1ccc(Nc2nc(-c3ncccn3)cs2)nc1`, the metabolised at 0.5 h, 0.5 µM was found to be 100% in data set [1] and 99% in [2].

As to `Clc1ccc(Nc2nc(-c3ncccn3)c(Cl)s2)nc1`, the metabolised at 0.5 h, 0.5 µM in data set [1] amounted to 99%; in data set [2], 71%.

Consider `Clc1ccc(Nc2nc(-c3cnccn3)cs2)nc1`, for which the metabolised at 0.5 h, 0.5 µM in [1] and in data set [2] was 99% throughout.

In the case of `Clc1ccc(Nc2nc(-c3cnccn3)c(Cl)s2)nc1`, the figures for the metabolised at 0.5 h, 0.5 µM in [1] and in data set [2] were 78% and 47%, respectively.

Turning to `Clc1ccc(Nc2nc(-n3cccn3)cs2)nc1`, the metabolised at 0.5 h, 0.5 µM in data set [1] and in data set [2] was 100% each time.

In the case of `Cc1ccc(Nc2nc(-c3ccccn3)cs2)cc1`, the metabolised at 0.5 h, 0.5 µM in [1] and in [2] was 100% each time. In addition, in data set [14], the Cmax came to 108 ng/mL. In data set [15], the Tmax was determined as 15 min. The AUC(0-t) in [16] stood at 99.8 ng·h/mL.

On to `Cc1ccnc(Nc2nc(-c3ccccn3)cs2)c1`, for which the metabolised at 0.5 h, 0.5 µM in [1] and in data set [2] was 99% each time.

In the case of `c1ccc(Nc2nc(-c3ccccn3)cs2)nc1`, the metabolised at 0.5 h, 0.5 µM in [1] and in [2] was 100% throughout.

For the compound `Cc1cccnc1Nc1nc(-c2ccccn2)cs1`, the metabolised at 0.5 h, 0.5 µM in data set [1] and in [2] was 100% each time.

For the compound `Cc1ccc(Nc2nc(-c3ccccn3)cs2)nc1`, the metabolised at 0.5 h, 0.5 µM in data set [1] and in data set [2] was 100% each time.

In the case of `Clc1ccc(Nc2nc(-c3ccccn3)cs2)nc1`, the metabolised at 0.5 h, 0.5 µM in data set [1] and in [2] was 100% in each case.

Take `COc1ccc(Nc2nc(-c3ccncc3)cs2)cc1`: the values for the metabolised at 0.5 h, 0.5 µM in data set [1] and in [2] were 98% and 83%, respectively.
